Measured values from patent publication US8329674B2, “Film forming dental compositions and related methods” (3M Innovative Properties Company, priority 2007, dated 2012).
Structures can show the parent of a compound that is named as a salt. Where two headings read alike, the source gives them in different places.

Legend:
Format in all cases: cell-based
[1] = system: Streptococcus mutans culture (ATCC 25175); experiment: Quantitative Biofilm Inhibition Test; details: for activity at 1 % w/w: Streptococcus mutans, ATCC25175, 20 h, read-out: OD Ratio
Protocol: Compounds of the dental compositions of the invention, and comparative compounds, were evaluated for biofilm inhibition activity. Composite dental restorative (available under the trade designation “FILTEK SUPREME” from 3M ESPE Dental Products, St. Paul, Minn.) was placed in a 15 millimeter by 1 millimeter stainless steel die. […] While the die containing the composite restorative was under compression, the composite was irradiated for two minutes using a Model ACE light source (available from SCHOTT North America, Inc., Auburn, N.Y.). The discs of cured composite restorative were then further cured using a Model UniXS light box (available from Heraeus Kulzer, Inc., Armonk, N.Y.) for 1.5 minutes.
The samples were incubated at 37° C. for approximately twenty hours, after which time the cured discs were removed from the broth and were gently rinsed with water. Each disc was placed in a separate test tube containing five milliliters of 1M aqueous sodium hydroxide solution, and each test tube was then sonicated for two minutes using a model SH1012-40-8 ultrasonic generator (manufactured by Branson Ultrasonics Corp., Danbury, Conn.) for two minutes to dislodge biofilm on the disc. The optical absorbance (optical density) of each aqueous sodium hydroxide solution was then measured at 550 nm using a Model ULTROSPEC III UV-visible spectrophotometer (manufactured by Pharmacia AB, Uppsala, Sweden). For each compound of the dental composition, five discs were separately incubated in broth and were evaluated separately to provide five optical density measurements. The average of the five optical density measurements was then calculated. […] The average optical density of the control or comparative samples was determined as described above. […] The ratio was considered to be proportional to the average amount of biofilm on the five cured discs, i.e., relatively low average optical density ratio was considered to be indicative of inhibition of biofilm formation. The ratio for the control was 100%.
(§1) The Quantitative Biofilm Inhibition Test was carried out using five compounds of the dental composition and eleven comparative compounds, each at a concentration of 1 weight percent. […] In addition, the Qualitative Biofilm Inhibition Test was carried out for each Example and Comparative Example, in which each disc was visually examined before it was placed in the tube containing the aqueous sodium hydroxide solution.

[2] = system: Streptococcus mutans culture (ATCC 25175); experiment: Qualitative Biofilm Inhibition Test; set-up: key: +: refers to a visual assessment that a compound inhibited biofilm formation; −: refers to a visual assessment that either a compound did not inhibit biofilm formation, or that bacteria grew in the culture broth; details: 1 weight percent compound; visible biofilm on disc after incubation and rinse
Protocol: as §1, with “During the procedure for the Quantitative Biofilm Inhibition Test, each cured disc was visually examined after it was removed from the broth (and rinsed with water) and before it was placed in a test tube containing five milliliters of 1M aqueous sodium hydroxide solution. The presence or absence of visible biofilm on a disc was noted. The” for “The”

Streptococcus mutans = experiment: Bacterial Kill Rate Test
Protocol: Compounds of the dental compositions of the invention were evaluated for extent of bacterial kill in culture. Overnight cultures of Streptococcus mutans in brain heart infusion broth (10^6 CFU/mL) was mixed with a 0.1 weight percent, 0.5 weight percent, or 1.0 weight percent aqueous solution of each compound of the dental composition. After a period of 2, 5, or 10 minutes, 1.0 mL of the mixture was transferred via pipette into a first tube containing 9.0 mL of Letheen broth to provide a 10^−1 dilution. The contents of the tube were mixed using a vortex mixer. A 1.0 mL aliquot of this sample was transferred via pipette into a second tube containing 9.0 mL of Letheen broth to provide a 10^−2 dilution. A 0.1 mL aliquot of each dilution was plated and spread in duplicate on sheep blood agar in Petri dishes, using a “hockey stick” applicator, to provide 10^−2 and 10^−3 dilutions, respectively, on each plate. The plates were incubated at 37° C. for a period of 48 to 72 hours, and then the colony forming units were counted. The CFU counts were compared and the log reduction in the counts were calculated. In Table 3, the bacteria count reduction (log reduction) is the difference between the log of the initial bacteria count and the log of the bacteria count after 2, 5, and 10 minutes.

[3] = system: Streptococcus mutans culture (ATCC 25175); experiment: Biofilm Inhibition Test: concentration of compound to inhibit biofilm formation at varied sucrose; details: tested at 50 or 150 millimolar
Protocol: Compounds of the dental compositions of the invention, and comparative compounds, were evaluated for biofilm inhibition activity. Composite dental restorative (available under the trade designation “FILTEK SUPREME” from 3M ESPE Dental Products, St. Paul, Minn.) was placed in a 15 millimeter by 1 millimeter stainless steel die. The open ends of the die were then covered with polyester film and the die was subjected to a pressure of 68.95 MPa using a hydraulic press. While the die containing the composite restorative was under compression, the composite was irradiated for two minutes using a Model ACE light source (available from SCHOTT North America, Inc., Auburn, N.Y.). The discs of cured composite restorative were then further cured using a Model UniXS light box (available from Heraeus Kulzer, Inc., Armonk, N.Y.) for 1.5 minutes.
The cured discs of composite restorative were then immersed in ten milliliters of Streptococcus mutans culture (ATCC 25175; 10^6 CFU/mL) prepared in brain heart infusion broth that contained 1.0 weight percent sucrose and 1 weight percent of a compound of the dental composition. The samples were incubated at 37° C. for approximately twenty hours, after which time the cured discs were removed from the broth and were gently rinsed with water. Each disc was placed in a separate test tube containing five milliliters of 1M aqueous sodium hydroxide solution, and each test tube was then sonicated for two minutes using a model SH1012-40-8 ultrasonic generator (manufactured by Branson Ultrasonics Corp., Danbury, Conn.) for two minutes to dislodge biofilm on the disc. The optical absorbance (optical density) of each aqueous sodium hydroxide solution was then measured at 550 nm using a Model ULTROSPEC III UV-visible spectrophotometer (manufactured by Pharmacia AB, Uppsala, Sweden). For each compound of the dental composition, five discs were separately incubated in broth and were evaluated separately to provide five optical density measurements. The average of the five optical density measurements was then calculated. […] The average optical density of the control or comparative samples was determined as described above. The ratio, expressed as a percentage, of the average optical density for each compound sample to the average optical density for a control sample was calculated by dividing the average optical density for each compound sample by the average optical density for a control sample and multiplying the result by one hundred. The ratio was considered to be proportional to the average amount of biofilm on the five cured discs, i.e., relatively low average optical density ratio was considered to be indicative of inhibition of biofilm formation. The ratio for the control was 100%.
During the procedure for the Quantitative Biofilm Inhibition Test, each cured disc was visually examined after it was removed from the broth (and rinsed with water) and before it was placed in a test tube containing five milliliters of 1M aqueous sodium hydroxide solution. The presence or absence of visible biofilm on a disc was noted.
The Biofilm Inhibition Test was carried out, using four compounds of the dental composition, in broth containing 1.0, 2.5, or 5.0 weight percent sucrose and the exemplary compounds of the dental composition at a concentration of either 50 millimolar or 150 millimolar. In Table 2, the millimolar concentration of compound that inhibited biofilm formation is given for each concentration of sucrose. An entry of “n/t” means that the compound was not tested in broth containing the corresponding concentration of sucrose.

[4] = 1 weight percent compound, broth with 1.0 weight percent sucrose, approx. twenty hours at 37° C., average OD at 550 nm as percentage of control (100%)

Structure (SMILES) | activity at 1 % w/w [1, 4] [%] | Visual Assessment [2] | Bacteria Count Reduction (log reduction) (Streptococcus mutans; 0.1 wt % compound, 2 min.) | Bacteria Count Reduction (log reduction) (Streptococcus mutans; 0.1 wt % compound, 5 min.) | Bacteria Count Reduction (log reduction) (Streptococcus mutans; 0.1 wt % compound, 10 min.) | Bacteria Count Reduction (log reduction) (Streptococcus mutans; 0.5 wt % compound, 2 min.) | Bacteria Count Reduction (log reduction) (Streptococcus mutans; 0.5 wt % compound, 5 min.) | Bacteria Count Reduction (log reduction) (Streptococcus mutans; 0.5 wt % compound, 10 min.) | OD Ratio [1, 4] [%] | further results
O=C(CO)[C@@H](O)[C@@H](O)[C@H](O)CO [D-Tagatose] | 145 | − |  |  |  |  |  |  |  | 
C[C@H](O)[C@@H](O)[C@@H](O)[C@H](O)C=O [Fucose] | 121 | − |  |  |  |  |  |  |  | 
N[C@H]1C(O)O[C@H](CO)[C@H](O)[C@@H]1O (stereo partly drawn) [Galactosamine HCl, D-galactosamine] | 0 | + | 1.13 | 1.00 | 0.96 | 0.89 | 1.08 | 1.31 |  | 
O=C[C@H](O)[C@@H](O)[C@@H](O)[C@H](O)CO [Galactose] | 87 | − |  |  |  |  |  |  |  | 
N[C@H]1C(O)O[C@H](CO)[C@@H](O)[C@@H]1O (stereo partly drawn) [Glucosamine HCl, D-glucosamine] |  | + | 1.03 | 0.94 | 0.97 | 0.99 | 0.98 | 0.93 | 0 | Bacteria Count Reduction (log reduction) (Streptococcus mutans; 1.0 wt % compound, 2 min.): 0.93 log reduction; Bacteria Count Reduction (log reduction) (Streptococcus mutans; 1.0 wt % compound, 5 min.): 0.99 log reduction; Bacteria Count Reduction (log reduction) (Streptococcus mutans; 1.0 wt % compound, 10 min.): 0.97 log reduction; Concentration of Compound to Inhibit Biofilm Formation ([3]; 1 wt% Sucrose): 50 mM; Concentration of Compound to Inhibit Biofilm Formation ([3]; 2.5 wt% Sucrose): 50 mM; Concentration of Compound to Inhibit Biofilm Formation ([3]; 5 wt% Sucrose): 50 mM
N[C@H]1C(O)O[C@H](CO)[C@@H](O)[C@@H]1O (stereo partly drawn) [Glucosamine Sulfate, D-glucosamine] |  | + | 0.95 | 0.75 | 0.87 | 0.78 | 0.80 | 0.81 | 2 | Bacteria Count Reduction (log reduction) (Streptococcus mutans; 1.0 wt % compound, 2 min.): 0.95 log reduction; Bacteria Count Reduction (log reduction) (Streptococcus mutans; 1.0 wt % compound, 5 min.): 0.89 log reduction; Bacteria Count Reduction (log reduction) (Streptococcus mutans; 1.0 wt % compound, 10 min.): 0.97 log reduction; Concentration of Compound to Inhibit Biofilm Formation ([3]; 1 wt% Sucrose): 50 mM; Concentration of Compound to Inhibit Biofilm Formation ([3]; 5 wt% Sucrose): 150 mM
OC[C@H]1O[C@@H](O[C@H]2[C@H](O)[C@@H](O)C(O)O[C@@H]2CO)[C@H](O)[C@@H](O)[C@H]1O (stereo partly shown) [Lactose] |  | − |  |  |  |  |  |  |  | activity at 1 % w/w [1]: 82%
OC[C@H]1O[C@@H](O[C@@H]2[C@@H](O)[C@H](O[C@@H]3[C@@H](O)[C@H](O[C@H]4[C@H](O)[C@@H](CO)OC(O)[C@@H]4O)O[C@H](CO)[C@H]3O)O[C@H](CO)[C@H]2O)[C@H](O)[C@@H](O)[C@@H]1O (stereo partly shown) [Laminaritetraose] |  | − |  |  |  |  |  |  | 97 | 
CC(=O)N[C@H]1C(O)O[C@H](CO)[C@H](O)[C@@H]1O (stereo partly shown) [N-Acetylgalactosamine] | 138 | − |  |  |  |  |  |  |  | 
CC(=O)N[C@H]1C(O)O[C@H](CO)[C@@H](O)[C@@H]1O (stereo partly shown) [N-Acetylglucosamine, reference compound] | 83 | − | 1.09 | 1.02 | 1.04 | 1.12 | 1.16 | 0.99 |  | Bacteria Count Reduction (log reduction) (Streptococcus mutans; 1.0 wt % compound, 2 min.): 1.05 log reduction; Bacteria Count Reduction (log reduction) (Streptococcus mutans; 1.0 wt % compound, 5 min.): 1.12 log reduction; Bacteria Count Reduction (log reduction) (Streptococcus mutans; 1.0 wt % compound, 10 min.): 1.06 log reduction
CC(=O)N[C@@H]1C(O)O[C@H](CO)[C@@H](O)[C@@H]1O (stereo partly shown) [N-Acetylmannosamine, reference compound] | 51 | − |  |  |  | 0.93 | 1.54 | 1.61 |  | 
OC[C@@H](O)[C@H](O)[C@@H](O)CO [Xylitol] | 123 | − |  |  |  |  |  |  |  | 
OC[C@H]1O[C@@H](OC[C@H]2O[C@@H](O)[C@H](O)[C@@H](O)[C@@H]2O)[C@H](O)[C@@H](O)[C@@H]1O [beta-Gentiobiose] |  | − |  |  |  |  |  |  | 124 | 
